In patent publication US20230085307A1, “PYRIDAZINONE COMPOUND AND HERBICIDE” (NISSAN CHEMICAL CORPORATION, priority 2019, published 2023):

These compounds were tested on late watergrass (assay: Test Example 1: herbicidal activity, application before weed generation under submerged conditions (Table 16, symbol A)). Conditions: amount of applied herbicide 320 g/ha.
Type: in vivo, late watergrass (Echinochloa oryzicola)
Summary of the method: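 Alluvial soil was flooded to 4 cm depth, weed seeds were sown mixed and 2.5-leaf rice seedlings were transplanted. On sowing day, the compound's emulsion, diluted in water to a set dose, was applied to the water surface. Plants grew at 25–30 °C and were scored 0–5 after three weeks.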

| SMILES | Herbicidal effect, A: late watergrass |
| --- | --- |
| CCCC(=O)Oc1c(C)nn(C)c(=O)c1-c1c(-c2ccc(F)cc2OC)sc2cc(F)ccc12 [3-010] | 5 (Herbicidal rate of 90% or more (almost completely withered)) |
| CCOc1cc(F)ccc1-c1sc2cc(F)ccc2c1-c1c(O)c(C)nn(C)c1=O [3-011] | 5 (Herbicidal rate of 90% or more (almost completely withered)) |

The compounds below were run on oval-leafed pondweed (assay: Test Example 2: herbicidal activity, application during weed generation under submerged conditions (Table 17, symbol C)). Conditions: AAH 320 g/ha; application during weed generation, submerged conditions.
Type: in vivo, oval-leafed pondweed (Monochoria vaginalis)
Summary of the method: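 Wagner pot, alluvial soil, 4 cm flood; mixed sowing of all species; greenhouse 25° C.–30° C. Emulsifiable formulation, water-diluted to predetermined dose, applied to paddy water at 1–2 leaf stage. Effect rated at 3 wk using the earlier test's scoring criteria.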

| SMILES | herbicidal effect rating, C: oval-leafed pondweed |
| --- | --- |
| CCCC(=O)Oc1c(C)nn(C)c(=O)c1-c1c(-c2ccc(F)cc2OC)sc2cc(F)ccc12 [3-010] | 4 (Herbicidal rate of 70% or more and less than 90%) |
| CCOc1cc(F)ccc1-c1sc2cc(F)ccc2c1-c1c(O)c(C)nn(C)c1=O [3-011] | 4 (Herbicidal rate of 70% or more and less than 90%) |

The compounds below were run on barnyard grass (assay: Test Example 3: herbicidal effect by foliage application, Wagner pot (Table 18, symbol H)). Conditions: amount of applied herbicide 320 g/ha.
Type: in vivo, barnyard grass (Echinochloa crus-galli)
Summary of the method: (§1)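 Plants were sown in alluvial soil held under 0.1–0.5 cm standing water and grown 14 days in a greenhouse at 25–30 °C. An emulsifiable formulation, water-diluted to the set dose, was then sprayed onto the foliage, and effects were scored three weeks later using previously defined criteria.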

| SMILES | herbicidal effect on H: barnyard grass |
| --- | --- |
| CCCC(=O)Oc1c(C)nn(C)c(=O)c1-c1c(-c2ccc(F)cc2OC)sc2cc(F)ccc12 [3-010] | 5 (Herbicidal rate of 90% or more (almost completely withered)) |
| CCOc1cc(F)ccc1-c1sc2cc(F)ccc2c1-c1c(O)c(C)nn(C)c1=O [3-011] | 5 (Herbicidal rate of 90% or more (almost completely withered)) |

These compounds were tested on Chinese sprangletop (assay: Test Example 3: herbicidal effect by foliage application, Wagner pot (Table 18, symbol D)). Conditions: amount of applied herbicide 320 g/ha.
Type: in vivo, chinese sprangletop (Leptochloa chinensis)
Summary of the method: as §1

| SMILES | herbicidal effect on D: Chinese sprangletop |
| --- | --- |
| CCCC(=O)Oc1c(C)nn(C)c(=O)c1-c1c(-c2ccc(F)cc2OC)sc2cc(F)ccc12 [3-010] | 0 (Herbicidal rate of 5% or less (almost no effect)) |
| CCOc1cc(F)ccc1-c1sc2cc(F)ccc2c1-c1c(O)c(C)nn(C)c1=O [3-011] | 4 (Herbicidal rate of 70% or more and less than 90%) |

The compounds below were run on southern crabgrass (assay: Test Example 4: herbicidal effect by soil treatment (Table 19, symbol F)). Conditions: amount of applied herbicide 320 g/ha.
Type: in vivo, southern crabgrass (Digitaria ciliaris)
Summary of the method: (§2)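 Herbicidal effect was rated 3 weeks after treatment, using the scoring criteria of an earlier test. The compound, formulated as an emulsion and diluted in water to a set herbicide amount, had been sprayed uniformly on soil over freshly sown seeds. Growth took place in a greenhouse at 25° C. to 30° C.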

| SMILES | herbicidal effect, F: southern crabgrass |
| --- | --- |
| CCCC(=O)Oc1c(C)nn(C)c(=O)c1-c1c(-c2ccc(F)cc2OC)sc2cc(F)ccc12 [3-010] | 3 (Herbicidal rate of 40% or more and less than 70%) |
| CCOc1cc(F)ccc1-c1sc2cc(F)ccc2c1-c1c(O)c(C)nn(C)c1=O [3-011] | 5 (Herbicidal rate of 90% or more (almost completely withered)) |

These compounds were tested on green foxtail (assay: Test Example 4: herbicidal effect by soil treatment (Table 19, symbol G)). Conditions: amount of applied herbicide 320 g/ha.
Type: in vivo, green foxtail (Setaria viridis)
Summary of the method: as §2

| SMILES | herbicidal effect, G: green foxtail |
| --- | --- |
| CCCC(=O)Oc1c(C)nn(C)c(=O)c1-c1c(-c2ccc(F)cc2OC)sc2cc(F)ccc12 [3-010] | 3 (Herbicidal rate of 40% or more and less than 70%) |
| CCOc1cc(F)ccc1-c1sc2cc(F)ccc2c1-c1c(O)c(C)nn(C)c1=O [3-011] | 5 (Herbicidal rate of 90% or more (almost completely withered)) |

Each compound was assayed on barnyard grass (assay: Test Example 4: herbicidal effect by soil treatment (Table 19, symbol H)). Conditions: amount of applied herbicide 320 g/ha.
Type: in vivo, barnyard grass (Echinochloa crus-galli)
Summary of the method: as §2

| SMILES | herbicidal effect, H: barnyard grass |
| --- | --- |
| CCCC(=O)Oc1c(C)nn(C)c(=O)c1-c1c(-c2ccc(F)cc2OC)sc2cc(F)ccc12 [3-010] | 3 (Herbicidal rate of 40% or more and less than 70%) |
| CCOc1cc(F)ccc1-c1sc2cc(F)ccc2c1-c1c(O)c(C)nn(C)c1=O [3-011] | 5 (Herbicidal rate of 90% or more (almost completely withered)) |

Each compound was assayed on blackgrass (assay: Test Example 4: herbicidal effect by soil treatment (Table 19, symbol J)). Conditions: amount of applied herbicide 320 g/ha.
Type: in vivo, blackgrass (Alopecurus myosuroides)
Summary of the method: as §2

| SMILES | herbicidal effect, J: blackgrass |
| --- | --- |
| CCCC(=O)Oc1c(C)nn(C)c(=O)c1-c1c(-c2ccc(F)cc2OC)sc2cc(F)ccc12 [3-010] | 4 (Herbicidal rate of 70% or more and less than 90%) |
| CCOc1cc(F)ccc1-c1sc2cc(F)ccc2c1-c1c(O)c(C)nn(C)c1=O [3-011] | 5 (Herbicidal rate of 90% or more (almost completely withered)) |

The compounds below were run on windgrass (assay: Test Example 4: herbicidal effect by soil treatment (Table 19, symbol L)). Conditions: amount of applied herbicide 320 g/ha.
Type: in vivo, windgrass (Apera spica-venti)
Summary of the method: as §2

| SMILES | herbicidal effect, L: windgrass |
| --- | --- |
| CCCC(=O)Oc1c(C)nn(C)c(=O)c1-c1c(-c2ccc(F)cc2OC)sc2cc(F)ccc12 [3-010] | 4 (Herbicidal rate of 70% or more and less than 90%) |
| CCOc1cc(F)ccc1-c1sc2cc(F)ccc2c1-c1c(O)c(C)nn(C)c1=O [3-011] | 5 (Herbicidal rate of 90% or more (almost completely withered)) |

These compounds were tested on redroot pigweed (assay: Test Example 4: herbicidal effect by soil treatment (Table 19, symbol N)). Conditions: amount of applied herbicide 320 g/ha.
Type: in vivo, redroot pigweed (Amaranthus retroflexus)
Summary of the method: as §2

| SMILES | herbicidal effect, N: redroot pigweed |
| --- | --- |
| CCCC(=O)Oc1c(C)nn(C)c(=O)c1-c1c(-c2ccc(F)cc2OC)sc2cc(F)ccc12 [3-010] | 5 (Herbicidal rate of 90% or more (almost completely withered)) |
| CCOc1cc(F)ccc1-c1sc2cc(F)ccc2c1-c1c(O)c(C)nn(C)c1=O [3-011] | 5 (Herbicidal rate of 90% or more (almost completely withered)) |

Each compound was assayed on chickweed (assay: Test Example 4: herbicidal effect by soil treatment (Table 19, symbol P)). Conditions: amount of applied herbicide 320 g/ha.
Type: in vivo, common chickweed (Stellaria media)
Summary of the method: as §2

| SMILES | herbicidal effect, P: chickweed |
| --- | --- |
| CCCC(=O)Oc1c(C)nn(C)c(=O)c1-c1c(-c2ccc(F)cc2OC)sc2cc(F)ccc12 [3-010] | 4 (Herbicidal rate of 70% or more and less than 90%) |
| CCOc1cc(F)ccc1-c1sc2cc(F)ccc2c1-c1c(O)c(C)nn(C)c1=O [3-011] | 4 (Herbicidal rate of 70% or more and less than 90%) |

What follows are compounds tested on southern crabgrass (assay: Test Example 5: herbicidal effect by foliage application, plastic box (Table 20, symbol F)). Conditions: foliage application, 320 g/ha, three weeks after application.
Type: in vivo, southern crabgrass (Digitaria ciliaris)
Summary of the method: (§3)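 Foliar spray test: emulsion formulation diluted in water to a set application rate, sprayed onto 14-day-old plants raised in diluvial soil at 25° C to 30° C under glass. Both herbicidal effect and crop effect rated visually three weeks later.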

| SMILES | F: southern crabgrass, herbicidal effect grade |
| --- | --- |
| CCCC(=O)Oc1c(C)nn(C)c(=O)c1-c1c(-c2ccc(F)cc2OC)sc2cc(F)ccc12 [3-010] | 3 (Herbicidal rate of 40% or more and less than 70%) |
| CCOc1cc(F)ccc1-c1sc2cc(F)ccc2c1-c1c(O)c(C)nn(C)c1=O [3-011] | 5 (Herbicidal rate of 90% or more (almost completely withered)) |

The compounds below were run on green foxtail (assay: Test Example 5: herbicidal effect by foliage application, plastic box (Table 20, symbol G)). Conditions: foliage application, 320 g/ha, three weeks after application.
Type: in vivo, green foxtail (Setaria viridis)
Summary of the method: as §3

| SMILES | G: green foxtail, herbicidal effect grade |
| --- | --- |
| CCCC(=O)Oc1c(C)nn(C)c(=O)c1-c1c(-c2ccc(F)cc2OC)sc2cc(F)ccc12 [3-010] | 5 (Herbicidal rate of 90% or more (almost completely withered)) |
| CCOc1cc(F)ccc1-c1sc2cc(F)ccc2c1-c1c(O)c(C)nn(C)c1=O [3-011] | 5 (Herbicidal rate of 90% or more (almost completely withered)) |

The compounds below were run on blackgrass (assay: Test Example 5: herbicidal effect by foliage application, plastic box (Table 20, symbol J)). Conditions: foliage application, 320 g/ha, three weeks after application.
Type: in vivo, blackgrass (Alopecurus myosuroides)
Summary of the method: as §3

| SMILES | J: blackgrass, herbicidal effect grade |
| --- | --- |
| CCCC(=O)Oc1c(C)nn(C)c(=O)c1-c1c(-c2ccc(F)cc2OC)sc2cc(F)ccc12 [3-010] | 5 (Herbicidal rate of 90% or more (almost completely withered)) |
| CCOc1cc(F)ccc1-c1sc2cc(F)ccc2c1-c1c(O)c(C)nn(C)c1=O [3-011] | 5 (Herbicidal rate of 90% or more (almost completely withered)) |

The compounds below were run on redroot pigweed (assay: Test Example 5: herbicidal effect by foliage application, plastic box (Table 20, symbol N)). Conditions: foliage application, 320 g/ha, three weeks after application.
Type: in vivo, redroot pigweed (Amaranthus retroflexus)
Summary of the method: as §3

| SMILES | N: redroot pigweed, herbicidal effect grade |
| --- | --- |
| CCCC(=O)Oc1c(C)nn(C)c(=O)c1-c1c(-c2ccc(F)cc2OC)sc2cc(F)ccc12 [3-010] | 5 (Herbicidal rate of 90% or more (almost completely withered)) |
| CCOc1cc(F)ccc1-c1sc2cc(F)ccc2c1-c1c(O)c(C)nn(C)c1=O [3-011] | 5 (Herbicidal rate of 90% or more (almost completely withered)) |

These compounds were tested on false cleavers (assay: Test Example 5: herbicidal effect by foliage application, plastic box (Table 20, symbol Q)). Conditions: foliage application, 320 g/ha, three weeks after application.
Type: in vivo, false cleavers (Galium spurium)
Summary of the method: as §3

| SMILES | Q: false cleavers, herbicidal effect grade |
| --- | --- |
| CCCC(=O)Oc1c(C)nn(C)c(=O)c1-c1c(-c2ccc(F)cc2OC)sc2cc(F)ccc12 [3-010] | 5 (Herbicidal rate of 90% or more (almost completely withered)) |
| CCOc1cc(F)ccc1-c1sc2cc(F)ccc2c1-c1c(O)c(C)nn(C)c1=O [3-011] | 5 (Herbicidal rate of 90% or more (almost completely withered)) |

Each compound was assayed on persian speedwell (assay: Test Example 5: herbicidal effect by foliage application, plastic box (Table 20, symbol R)). Conditions: foliage application, 320 g/ha, three weeks after application.
Type: in vivo, Persian speedwell (Veronica persica)
Summary of the method: as §3

| SMILES | R: persian speedwell, herbicidal effect grade |
| --- | --- |
| CCCC(=O)Oc1c(C)nn(C)c(=O)c1-c1c(-c2ccc(F)cc2OC)sc2cc(F)ccc12 [3-010] | 5 (Herbicidal rate of 90% or more (almost completely withered)) |
| CCOc1cc(F)ccc1-c1sc2cc(F)ccc2c1-c1c(O)c(C)nn(C)c1=O [3-011] | 5 (Herbicidal rate of 90% or more (almost completely withered)) |
